Results taken from ChEMBL document CHEMBL1154442, “The total synthesis of fukiic acid, an HIV-1 integrase inhibitor” (Eur J Med Chem, 2008).
pEC50, pIC50: −log10 of the molar value.

Tests used:
[1] = Cytotoxicity against human MT4 cells by MTT assay; format: cell-based
[2] = test system: Human immunodeficiency virus 1; assay: Antiviral activity against HIV1 3B infected in human MT4 cells assessed as inhibition of virus-induced cytopathic effect by MTT assay; format: functional, organism-based; conditions: Human immunodeficiency virus 1, 3B
[3] = target: T1, Human immunodeficiency virus type 1 integrase (Human immunodeficiency virus 1, UniProt Q7ZJM1); assay: Inhibition of HIV1 integrase using U5A/U5B double-stranded DNA as substrate by ELISA
T1 sequence (Q7ZJM1 whole entry): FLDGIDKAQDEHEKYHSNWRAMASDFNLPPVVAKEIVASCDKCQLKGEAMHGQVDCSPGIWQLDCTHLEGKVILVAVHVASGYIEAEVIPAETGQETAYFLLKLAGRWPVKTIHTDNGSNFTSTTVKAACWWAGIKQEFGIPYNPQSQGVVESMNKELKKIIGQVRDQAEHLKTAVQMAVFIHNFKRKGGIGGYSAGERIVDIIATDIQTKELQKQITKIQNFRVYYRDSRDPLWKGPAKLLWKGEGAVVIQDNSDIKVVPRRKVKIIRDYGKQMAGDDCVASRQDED

[4] = target: T1, Human immunodeficiency virus type 1 integrase; assay: Inhibition of HIV1 integrase using U5A/U5B double-stranded DNA as substrate by ELISA in presence of BSA

pIC50 [3]: 6.60
pIC50 [4]: 4.77
SMILES: O=C(O)C(O)C(O)(Cc1ccc(O)c(O)c1)C(=O)O (racemic)
CC50 [1]: 22 µM
pEC50 [2]: < 4.66
